In patent US20240123079A1 (Seagen Inc., priority 2021, published 2024):
Like-named read-outs stand apart in the source and are kept apart here.

Tested on: THP1-Dual™ reporter cells
Assay: THP1-Dual cell reporter assay (IRF-Lucia luciferase reporter)
Type: cell-based, human
In short: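 THP1-Dual monocytic cells (~100,000/well) were exposed to compound for 24 h (ADCs 48 h). Secreted IRF-driven Lucia luciferase in the supernatant was quantified by QUANTI-Luc luminescence.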

[1] = Homo sapiens, THP1-Dual, free compounds, 24 h, Lucia reporter signal, read-out: EC50
[2] = ADCs: drug linker conjugated to a targeted mAb, 48 h

Compound | EC50 [1] [nM] | also measured
CCn1nc(C)cc1C(=O)Nc1nc2cc(C(N)=O)cc(OC)c2n1C/C=C/Cn1c(NC(=O)c2cc(C)nn2CC)nc2cc(C(N)=O)cc(OCCCN(C)C(=O)[C@@H](N)Cc3ccccc3)c21 [Compound 116] | 11.6 | 
CCn1nc(C)cc1C(=O)Nc1nc2cc(C(N)=O)cc(OC)c2n1C/C=C/Cn1c(NC(=O)c2cc(C)nn2CC)nc2cc(C(N)=O)cc(OCCCN(C)C(=O)[C@H](CC(C)C)NC(=O)CCN3C(=O)C=CC3=O)c21 [Compound 121] |  | EC50 [2]: 3.0 ng/mL
CCn1nc(C)cc1C(=O)Nc1nc2cc(C(N)=O)cc(OC)c2n1C/C=C/Cn1c(NC(=O)c2cc(C)nn2CC)nc2cc(C(N)=O)cc(OCCCN(C)C(=O)[C@H](Cc3ccccc3)NC(=O)CCN3C(=O)C=CC3=O)c21 [Compound 122] |  | EC50 [2]: 5.6 ng/mL
CCn1nc(C)cc1C(=O)Nc1nc2cc(C(N)=O)cc(OC)c2n1C/C=C/Cn1c(NC(=O)c2cc(C)nn2CC)nc2cc(C(N)=O)cc(OCCCN(C)C(=O)[C@H](CCC(=O)OC)NC(=O)CCN3C(=O)C=CC3=O)c21 [Compound 123] |  | EC50 [2]: 1.6 ng/mL
CCn1nc(C)cc1C(=O)Nc1nc2cc(C(N)=O)cc(OC)c2n1C/C=C/Cn1c(NC(=O)c2cc(C)nn2CC)nc2cc(C(N)=O)cc(OCCCN(C)C(=O)[C@H](Cc3ccc(OC)cc3)NC(=O)CCN3C(=O)C=CC3=O)c21 [Compound 124] |  | EC50 [2]: 9.1 ng/mL
CCn1nc(C)cc1C(=O)Nc1nc2cc(C(N)=O)cc(OC)c2n1C/C=C/Cn1c(NC(=O)c2cc(C)nn2CC)nc2cc(C(N)=O)cc(OCCCN(C)C(=O)[C@@H](NC(=O)CCN3C(=O)C=CC3=O)[C@@H](C)OC)c21 [Compound 125] |  | EC50 [2]: 1.4 ng/mL
CCn1nc(C)cc1C(=O)Nc1nc2cc(C(=O)O)cc(OC)c2n1C/C=C/Cn1c(NC(=O)c2cc(C)nn2CC)nc2cc(C(N)=O)cc(OCCCN(C)C(=O)CCN3C(=O)C=CC3=O)c21 [Compound 126, (E)-1-(4-(5-carbamoyl-7-(3-(3-(2,5-dioxo-2,5-dihydro-1H-pyrrol-1-yl)-N-methylpropanamido)propoxy)-2-(1-ethyl-3-methyl-1H-pyrazole-5-carboxamido)-1H-benzo[d]imidazol-1-yl)but-2-en-1-yl)-2-(1-ethyl-3-methyl-1H-pyrazole-5-carboxamido)-7-methoxy-1H-benzo[d]imidazole-5-carboxylic acid] |  | EC50 (ng/mL) [2]: >10,000 ng/mL
CCn1nc(C)cc1C(=O)Nc1nc2cc(S(=O)(=O)NC)ccc2n1C/C=C/Cn1c(NC(=O)c2cc(C)nn2CC)nc2cc(C(N)=O)cc(OCCCN(C)C(=O)CCN3C(=O)C=CC3=O)c21 [Compound 128, (E)-7-(3-(3-(2,5-dioxo-2,5-dihydro-1H-pyrrol-1-yl)-N-methylpropanamido)propoxy)-2-(1-ethyl-3-methyl-1H-pyrazole-5-carboxamido)-1-(4-(2-(1-ethyl-3-methyl-1H-pyrazole-5-carboxamido)-5-(N-methylsulfamoyl)-1H-benzo[d]imidazol-1-yl)but-2-en-1-yl)-1H-benzo[d]imidazole-5-carboxamide] |  | EC50 (ng/mL) [2]: >10,000 ng/mL
CCn1nc(C)cc1C(=O)Nc1nc2cc(C(N)=O)cc(OC)c2n1C/C=C/Cn1c(NC(=O)c2cc(C)nn2CC)nc2cc(C(N)=O)cc(OCCCN(C(=O)CCN3C(=O)C=CC3=O)C3CC3)c21 [Compound 133, (E)-1-(4-(5-carbamoyl-2-(1-ethyl-3-methyl-1H-pyrazole-5-carboxamido)-7-methoxy-1H-benzo[d]imidazol-1-yl)but-2-en-1-yl)-7-(3-(N-cyclopropyl-3-(2,5-dioxo-2,5-dihydro-1H-pyrrol-1-yl)propanamido)propoxy)-2-(1-ethyl-3-methyl-1H-pyrazole-5-carboxamido)-1H-benzo[d]imidazole-5-carboxamide] |  | EC50 [2]: 12.2 ng/mL
CCn1nc(C)cc1C(=O)Nc1nc2cc(C(N)=O)cc(OC)c2n1C/C=C/Cn1c(NC(=O)c2cc(C)nn2CC)nc2cc(C(N)=O)cc(OCCC[N+](C)(C)Cc3ccc(O[C@@H]4O[C@H](C(=O)O)[C@@H](O)[C@H](O)[C@H]4O)cc3NC(=O)CCNC(=O)CCN3C(=O)C=CC3=O)c21.O=C([O-])C(F)(F)F [Compound 134] |  | EC50 [2]: 10.3 ng/mL

The next lines start with results.

EC50 [1] [nM] | Compound | also measured
14.6 | CCn1nc(C)cc1C(=O)Nc1nc2cc(C(N)=O)cc(OC)c2n1C/C=C/Cn1c(NC(=O)c2cc(C)nn2CC)nc2cc(C(N)=O)cc(OCCCN(C)C(=O)[C@@H](N)CCC(=O)OC)c21 [Compound 117] | 
23.6 | CCn1nc(C)cc1C(=O)Nc1nc2cc(C(N)=O)cc(OC)c2n1C/C=C/Cn1c(NC(=O)c2cc(C)nn2CC)nc2cc(C(N)=O)cc(OCCCN(C)C(=O)[C@@H](N)Cc3ccc(OC)cc3)c21 [Compound 118] | 
49.9 | CCn1nc(C)cc1C(=O)Nc1nc2cc(C(N)=O)cc(OC)c2n1C/C=C/Cn1c(NC(=O)c2cc(C)nn2CC)nc2cc(C(N)=O)cc(OCCCN(C)C(=O)[C@@H](N)Cc3cn(C)cn3)c21 [Compound 119] | 
5.2 | CCn1nc(C)cc1C(=O)Nc1nc2cc(C(N)=O)cc(OC)c2n1C/C=C/Cn1c(NC(=O)c2cc(C)nn2CC)nc2cc(C(N)=O)cc(OCCCN(C)C(=O)[C@@H](N)[C@@H](C)OC)c21 [Compound 120] | 
301 | CCn1nc(C)cc1C(=O)Nc1nc2cc(S(=O)(=O)NC)ccc2n1C/C=C/Cn1c(NC(=O)c2cc(C)nn2CC)nc2cc(C(N)=O)cc(OCCCN(C)C(=O)OC(C)(C)C)c21 [Compound 127, tert-butyl (E)-(3-((5-carbamoyl-2-(1-ethyl-3-methyl-1H-pyrazole-5-carboxamido)-1-(4-(2-(1-ethyl-3-methyl-1H-pyrazole-5-carboxamido)-5-(N-methylsulfamoyl)-1H-benzo[d]imidazol-1-yl)but-2-en-1-yl)-1H-benzo[d]imidazol-7-yl)oxy)propyl)(methyl)carbamate] | 
> 10000 | CCn1nc(C)cc1C(=O)Nc1nc2cc(S(=O)(=O)NC)ccc2n1C/C=C/Cn1c(NC(=O)c2cc(C)nn2CC)nc2cc(C(N)=O)cc(OCCCNC)c21 [Compound 128a] | 
836 | CCn1nc(C)cc1C(=O)Nc1nc2cc(C(=O)OC)cc(OC)c2n1C/C=C/Cn1c(NC(=O)c2cc(C)nn2CC)nc2cc(C(N)=O)cc(OCCCN(C)C(=O)CCN3C(=O)CC(SC[C@H](N)C(=O)O)C3=O)c21 (stereo partly drawn) [Compound 129, S-(1-(3-((3-((5-carbamoyl-2-(1-ethyl-3-methyl-1H-pyrazole-5-carboxamido)-1-((E)-4-(2-(1-ethyl-3-methyl-1H-pyrazole-5-carboxamido)-7-methoxy-5-(methoxycarbonyl)-1H-benzo[d]imidazol-1-yl)but-2-en-1-yl)-1H-benzo[d]imidazol-7-yl)oxy)propyl)(methyl)amino)-3-oxopropyl)-2,5-dioxopyrrolidin-3-yl)-L-cysteine] | 
2260 | CCn1nc(C)cc1C(=O)Nc1nc2cc(C(=O)O)cc(OC)c2n1C/C=C/Cn1c(NC(=O)c2cc(C)nn2CC)nc2cc(C(N)=O)cc(OCCCN(C)C(=O)CCN3C(=O)CC(SC[C@H](N)C(=O)O)C3=O)c21 (stereo partly drawn) [Compound 130, 1-((E)-4-(7-(3-(3-(3-(((R)-2-amino-2-carboxyethyl)thio)-2,5-dioxopyrrolidin-1-yl)-N-methylpropanamido)propoxy)-5-carbamoyl-2-(1-ethyl-3-methyl-1H-pyrazole-5-carboxamido)-1H-benzo[d]imidazol-1-yl)but-2-en-1-yl)-2-(1-ethyl-3-methyl-1H-pyrazole-5-carboxamido)-7-methoxy-1H-benzo[d]imidazole-5-carboxylicacid] | 
37.4 | CCn1nc(C)cc1C(=O)Nc1nc2cc(C(N)=O)ccc2n1C/C=C/Cn1c(NC(=O)c2cc(C)nn2CC)nc2cc(C(N)=O)cc(OCCCN(C)C(=O)CCCCCN3C(=O)CC(SC[C@H](N)C(=O)O)C3=O)c21 (stereo partly drawn) [Compound 132, S-(1-(6-((3-((5-carbamoyl-1-((E)-4-(5-carbamoyl-2-(1-ethyl-3-methyl-1H-pyrazole-5-carboxamido)-1H-benzo[d]imidazol-1-yl)but-2-en-1-yl)-2-(1-ethyl-3-methyl-1H-pyrazole-5-carboxamido)-1H-benzo[d]imidazol-7-yl)oxy)propyl)(methyl)amino)-6-oxohexyl)-2,5-dioxopyrrolidin-3-yl)-L-cysteine] | 
2010 | CCn1nc(C)cc1C(=O)Nc1nc2cc(S(N)(=O)=O)ccc2n1C/C=C/Cn1c(NC(=O)c2cc(C)nn2CC)nc2cc(C(N)=O)cc(OCCC3CNC3)c21 [Compound 135, (E)-7-(2-(azetidin-3-yl)ethoxy)-2-(1-ethyl-3-methyl-1H-pyrazole-5-carboxamido)-1-(4-(2-(1-ethyl-3-methyl-1H-pyrazole-5-carboxamido)-5-sulfamoyl-1H-benzo[d]imidazol-1-yl)but-2-en-1-yl)-1H-benzo[d]imidazole-5-carboxamide] | 
> 5000 | CCn1nc(C)cc1C(=O)Nc1nc2cc(S(N)(=O)=O)ccc2n1C/C=C/Cn1c(NC(=O)c2cc(C)nn2C)nc2cc(C(N)=O)cc(OCCC3CNC3)c21 [Compound 136, (E)-7-(2-(azetidin-3-yl)ethoxy)-2-(1,3-dimethyl-1H-pyrazole-5-carboxamido)-1-(4-(2-(1-ethyl-3-methyl-1H-pyrazole-5-carboxamido)-5-sulfamoyl-1H-benzo[d]imidazol-1-yl)but-2-en-1-yl)-1H-benzo[d]imidazole-5-carboxamide] | 
1680 | CCn1nc(C)cc1C(=O)Nc1nc2cc(S(N)(=O)=O)ccc2n1C/C=C/Cn1c(NC(=O)c2cc(C)nn2CC)nc2cc(C(N)=O)cc(OCCCOC3CNC3)c21 [Compound 137, (E)-7-(3-(azetidin-3-yloxy)propoxy)-2-(1-ethyl-3-methyl-1H-pyrazole-5-carboxamido)-1-(4-(2-(1-ethyl-3-methyl-1H-pyrazole-5-carboxamido)-5-sulfamoyl-1H-benzo[d]imidazol-1-yl)but-2-en-1-yl)-1H-benzo[d]imidazole-5-carboxamide] | 
> 5000 | CCn1nc(C)cc1C(=O)Nc1nc2cc(S(N)(=O)=O)ccc2n1C/C=C/Cn1c(NC(=O)c2cc(C)nn2C)nc2cc(C(N)=O)cc(OCCCOC3CNC3)c21 [Compound 138] | 
> 4000 | CCn1nc(C)cc1C(=O)Nc1nc2cc(S(N)(=O)=O)ccc2n1C/C=C/Cn1c(NC(=O)c2cc(C)nn2C)nc2cc(C(N)=O)cc(OCCCNC)c21 [Compound 139] | 
